The text below walks through data of publication PMC5648515, “A novel small molecule inhibitor of p32 mitochondrial protein overexpressed in glioma” (Journal of Translational Medicine, 2017).

For this experiment, the target named is T1, p32 (C1qBP) (Homo sapiens, UniProt Q07021).
T1 construct: Human recombinant p32 (OriGene)
T1 sequence (Q07021 74-282): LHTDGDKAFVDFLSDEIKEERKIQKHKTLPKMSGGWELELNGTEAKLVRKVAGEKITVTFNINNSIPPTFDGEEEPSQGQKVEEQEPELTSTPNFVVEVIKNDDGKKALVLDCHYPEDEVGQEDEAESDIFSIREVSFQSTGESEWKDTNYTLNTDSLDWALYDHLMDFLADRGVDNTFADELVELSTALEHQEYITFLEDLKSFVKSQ
Nature of the experiment: fluorescence polarization competition with 5-FAM-labelled cyclic LyP-1 peptide; protein thermal shift with […] M36. The class given is binding. (In fluorescence polarisation assays a small probe gives low polarisation when free and higher when bound to something large.)

Take `O=C(NCCCNC(=O)Nc1cccc(C2=NCCN2)c1)Nc1cccc(C2=NCCN2)c1` [M36]: the “p32 thermal shift stability change” value is listed as “P32 protein stability was altered by M36 as observed by a shift in the melting curve of the protein”.
